GI50 and TGI data for 18 compounds are collected here from PubChem BioAssay (NCI).

Holding throughout (experiment): NCI anticancer screen, dose series, 48 h
The test system of experiment [1] is SF-268 CNS.
Experiment [2] relates to HCT-116 colon.
In experiment [3] the test system is NCI-H460 lung.
In experiment [4] the test system is LOX IMVI melanoma.
In experiment [5] the test system is A498 renal.
For experiment [6], the system named is SF-295 CNS.
In experiment [7] the test system is OVCAR-3 ovarian.
Experiment [8] deals with SK-MEL-28 melanoma.
The test system of experiment [9] is CAKI-1 renal.
The subject of experiment [10] is NCI-H522 lung.

Molecules are shown by their SMILES.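 1) Cells in 96-well plates. 2) Compound, 48 h, 5 concentrations. 3) Linear interpolation between surrounding doses. 4) Unreached endpoint = highest concentration. At the GI50, growth is halved. TGI marks complete inhibition of growth.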 Bounds are passed on as bounds.

Regarding `COC(=O)c1cc2c(o1)-c1nccc3c1c(nc1ccccc13)C2=O`, the GI50 was 2.82 µM in experiment [1]; 1.92 µM in experiment [2]; 12.2 µM in experiment [3]; 3.61 µM in experiment [4]; 18 µM in [5]; 4.51 µM in experiment [6]. Also, the GI50 in experiment [7] was 1.26 µM; in experiment [8] it was 11.5 µM; in experiment [9], 9.48 µM. Besides, the TGI was 24.2 µM in [1]; 5.95 µM in [2]; 35 µM in experiment [3]; 16.2 µM in experiment [4]; 39.1 µM in experiment [5]; 18.3 µM in experiment [6]. Moreover, the TGI is 4.37 µM in [7], 25.4 µM in experiment [8] and 32.3 µM in [9].
As for `CCOCN1COCN(C)C1=O`, the TGI in experiment [1], in experiment [2], in experiment [3], in experiment [4], in experiment [5] and in experiment [6] was greater than 100 µM in each case. Besides, the TGI in experiment [7], in experiment [8] and in experiment [9] was greater than 100 µM throughout.
Take `Cc1cc2c(c(C(N)=O)c1C)-c1ccccc1C2=O`: the TGI in [1], in [2], in [3], in experiment [4], in [5] and in experiment [6] was greater than 100 µM in each case. Moreover, the TGI in [7], in experiment [8] and in experiment [10] was greater than 100 µM in each case.
With `CCC(C)(O)c1cnc(CC(C)C)c(=O)n1O` (centres undefined), the TGI was greater than 100 µM in [1]; greater than 100 µM in experiment [2]; 81.8 µM in [3]; greater than 100 µM in experiment [4]; greater than 100 µM in experiment [5]; greater than 100 µM in experiment [6]. Moreover, the TGI was 81.6 µM in [7], greater than 100 µM in experiment [8] and greater than 100 µM in experiment [9].
As to `O=C(Cc1nc2c3c(ccc2[nH]c1=O)C(=O)c1ccccc1C3=O)C(=O)Nc1ccccc1[N+](=O)[O-]`, the TGI was found to be 31.5 µM in experiment [1]; 65.4 µM in experiment [2]; 97.6 µM in [3]; 44.8 µM in [4]; 25.6 µM in experiment [7]; 30.3 µM in experiment [8]. In addition, the results for the TGI in [10] and in experiment [9] were 18 µM and 62.9 µM, respectively.
As for `Cn1c(=O)nc2n(-c3cc(C(F)(F)F)cc(C(F)(F)F)c3)c3ccccc3nc-2c1=O`, the TGI in [1], in experiment [2], in experiment [3], in [4], in experiment [5] and in experiment [6] was greater than 100 µM throughout. The TGI in experiment [7], in experiment [8] and in experiment [9] was greater than 100 µM throughout.
As for `N#CCCN1C/C(=C/c2ccc(Br)cc2)C(=O)/C(=C/c2ccc(Br)cc2)C1`, the GI50 is 0.181 µM in experiment [2]; 0.512 µM in experiment [4]; 1.77 µM in experiment [8]; 1.89 µM in experiment [10]; 2.78 µM in experiment [9]. The TGI in experiment [2] was 0.345 µM; in experiment [4], 1.76 µM; in [8], 3.51 µM; in experiment [10], 3.81 µM; in experiment [9], greater than 100 µM.
As to `CC(C(=O)c1ccc(Cl)cc1)/C(=N/NC(=O)NN)C(=O)Nc1cccc(C(F)(F)F)c1` (centres undefined), the TGI in experiment [1], in experiment [2], in experiment [3], in experiment [4], in [5] and in experiment [6] was greater than 100 µM each time. Also, the TGI in [7], in [8] and in experiment [9] was greater than 100 µM each time.
Regarding `O=C(O)c1cccc(COc2ccc([N+](=O)[O-])cc2Cl)c1`, the GI50 in [1] was 7.71 µM; in experiment [2], greater than 100 µM; in experiment [3], greater than 100 µM; in experiment [4] it was 94 µM; in experiment [6] it was greater than 100 µM; in experiment [7], 50.3 µM. In addition, the GI50 in experiment [8] is greater than 100 µM; in experiment [10] it was 18.4 µM; in experiment [9], greater than 100 µM. The TGI in experiment [1] is 85.6 µM; in experiment [2] it was greater than 100 µM; in experiment [3], greater than 100 µM; in experiment [4], greater than 100 µM; in experiment [6], greater than 100 µM; in experiment [7] it was greater than 100 µM. Also, the TGI in [8] was greater than 100 µM; in experiment [10], 93 µM; in experiment [9] it was greater than 100 µM.
Consider `CC(C)=C1CCC(CN(C)C)C1=O` (centres undefined), for which the TGI was 97.3 µM in experiment [1]; 30.3 µM in experiment [2]; greater than 100 µM in [3]; 36.9 µM in [5]; greater than 100 µM in experiment [6]; 31.7 µM in experiment [7]. In addition, the TGI in experiment [8] is 34 µM; in experiment [10] it was 0.4 µM.
For the compound `O=[N+]([O-])c1cccc(C2=NOC(C3CCCCC3)C2)c1` (centres undefined), the TGI in experiment [1], in [2], in experiment [3], in experiment [5], in [6] and in experiment [7] was greater than 100 µM in each case. The TGI in [8] and in experiment [10] was greater than 100 µM in each case.
Regarding `Cc1[nH]c2ccccc2c1C1Cc2ccccc2N1C(=O)C#Cc1ccc([N+](=O)[O-])cc1` (centres undefined), the TGI in experiment [1], in experiment [2], in [3], in experiment [4], in experiment [5] and in [6] was greater than 100 µM each time. In addition, the TGI in experiment [7] and in experiment [8] was greater than 100 µM in each case.
Regarding `c1coc(-c2c3ccc(=[N+]4CCCCC4)cc-3oc3cc(N4CCCCC4)ccc23)c1`, the GI50 was 0.0667 µM in [1]; 0.0784 µM in [5]; 0.0937 µM in experiment [6]; 0.033 µM in experiment [7]; 0.114 µM in experiment [8]; 0.0313 µM in experiment [9]. Further, the TGI is 0.472 µM in experiment [1]; 0.568 µM in experiment [5]; 0.417 µM in experiment [6]; 0.126 µM in experiment [7]; 0.854 µM in experiment [8]; 0.105 µM in experiment [9].
`O=C(N/C(=C\c1ccc([N+](=O)[O-])cc1)c1nc2ccccc2[nH]1)c1ccccc1`: the TGI in experiment [1], in [2], in experiment [3], in experiment [5], in experiment [6] and in experiment [8] was greater than 100 µM throughout. This compound had a TGI in experiment [10] greater than 100 µM.
As to `COC(=O)C1C(O)C(C(=O)OC)C(C)N(C)C1C` (centres undefined), the TGI in experiment [2], in [3], in experiment [4], in [5], in experiment [6] and in [7] was greater than 100 µM each time. Also, the TGI in [8] and in experiment [9] was greater than 100 µM throughout.
Consider `Nc1nc(-c2ccc(Cl)c([N+](=O)[O-])c2)cs1`, for which the TGI was greater than 100 µM in experiment [1]; greater than 100 µM in experiment [2]; greater than 100 µM in experiment [3]; greater than 100 µM in [4]; 92.1 µM in experiment [5]; greater than 100 µM in [6]. In addition, the TGI in experiment [7] and in [9] was greater than 100 µM each time.
On to `O=C(Nc1cc(Cl)ccc1O)c1ccc(Nc2ccnc(C(F)(F)F)c2)cc1`, for which the GI50 in [1] was 3.99 µM; in experiment [2] it was 2.9 µM; in experiment [3], 2.49 µM; in experiment [4] it was 3.09 µM; in experiment [5] it was 2.39 µM; in [6], 2.2 µM. In addition, the figures for the GI50 in experiment [7], in experiment [8] and in experiment [9] were 2.16 µM, 4.6 µM and 2.02 µM, respectively. In addition, the TGI in experiment [1] was greater than 100 µM; in experiment [2] it was 60.8 µM; in [3], 6.91 µM; in experiment [4], 76.9 µM; in experiment [5], 7.17 µM; in experiment [6], 7.03 µM. Moreover, the TGI in experiment [7] is 5.58 µM; in experiment [8] it was greater than 100 µM; in experiment [9], 7.77 µM.
As to `O=C(/C(=C\c1c(-c2ccccc2)[nH]c2ccccc12)S(=O)(=O)c1ccccc1)c1ccccc1`, the GI50 in [1] is greater than 100 µM; in [2], 4.89 µM; in [3], 5.9 µM; in experiment [4], 74.7 µM; in [6], 3.47 µM; in [7], greater than 100 µM. The results for the GI50 in [8], in experiment [10] and in experiment [9] were greater than 100 µM, 91.8 µM and 3.13 µM, respectively. The TGI in experiment [1], in experiment [2], in [3], in experiment [4], in [6] and in experiment [7] was greater than 100 µM throughout. Besides, the TGI in [8], in [10] and in [9] was greater than 100 µM throughout.
